What all share (format): biochemical
The target of assay [1] is T1, papain inactivated by methyl methanethiolsulfonate (Carica papaya, UniProt P00784).
T1 construct: purchased Sigma Chemical Company (St. Louis, Mo.)
T1 sequence (P00784 134-345): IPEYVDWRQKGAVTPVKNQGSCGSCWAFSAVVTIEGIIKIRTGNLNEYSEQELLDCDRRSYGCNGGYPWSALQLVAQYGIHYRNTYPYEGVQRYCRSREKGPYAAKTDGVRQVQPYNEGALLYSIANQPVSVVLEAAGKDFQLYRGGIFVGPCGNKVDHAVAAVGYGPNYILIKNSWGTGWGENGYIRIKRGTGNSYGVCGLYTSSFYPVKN

For assay [2], the target named is T2, papain (Carica papaya, UniProt P00784).
T2 construct: purchased Sigma Chemical Company (St. Louis, Mo.)
T2 sequence (P00784 134-345): T1 sequence (P00784 134-345)
Briefly: Background activity of papain inactivated by disulfide-forming reagents. As to conditions: compared with papain inactivated with methyl methanethiolsulfonate.

The target in assay [3] is T2, papain. Briefly: Inactivation of activated papain by metal salts. As to conditions: metal salt added to equal 1.1× the molar amount of papain. The text has this: Papain was activated as described above, and the DTT was removed by gel filtration using G-25. Papain was then inactivated by adding a slight molar excess of a mono, di, tri, or tetra valent metal. […] The inhibition by the metals was essentially instantaneous.
This papain was used to assay H2S as follows.

Assay [4] addresses T3, papain inactivated by 4,4′-dithiobis-pyridine (Carica papaya, UniProt P00784).
T3 construct: purchased Sigma Chemical Company (St. Louis, Mo.)
T3 sequence (P00784 134-345): T1 sequence (P00784 134-345)

The target in assay [5] is T4, papain inactivated by 2,2′-dithiobis-pyridine (Carica papaya, UniProt P00784).
T4 construct: purchased Sigma Chemical Company (St. Louis, Mo.)
T4 sequence (P00784 134-345): T1 sequence (P00784 134-345)

Where [6] appears, read: 50 pmoles of DTT added, turnover of 600/min.
Where [7] appears, read: compared with papain inhibited by methyl methanethiolsulfonate.

Like-named read-outs stand apart in the source and are kept apart here.

Take `O[C@H](CS)[C@H](O)CS` (racemic) [DTT, dithiothreitol]: the “rate of appearance of p-nitroanaline” value in assay [1] was 0.00026 M/min. Also, the “amount of active papain in 200 μl” value in assay [1] (setting [6]) came out at 72 pmol. Moreover, the “concentration of active papain needed to generate product at this rate” value in assay [1] (setting [6]) was 360 nM. Besides, the “Δ A410/min” value was determined as 0.52 min⁻¹ in assay [1] (10 picomoles of DTT added, 1 minute incubation at 25° C., Tris pH 8.0); 0.96 min⁻¹ in assay [1] (20 picomoles of DTT added, 1 minute incubation at 25° C., Tris pH 8.0); 1.9 min⁻¹ in assay [1] (50 picomoles of DTT added, 1 minute incubation at 25° C., Tris pH 8.0).

For the molecule `c1ccc(SSc2ccccn2)nc1` [2,2′-dithiobis-pyridine], in assay [2], the “background level of activity exhibited by the inactivated papain” value is recorded as “higher than papain inactivated with methyl methanethiolsulfonate”.

For the molecule `c1cc(SSc2ccncc2)ccn1` [4,4′-dithiobis-pyridine], the “background level of activity exhibited by the inactivated papain” value in assay [2] was “higher than papain inactivated with methyl methanethiolsulfonate”.

For the molecule `O=[N+]([O-])[O-].[Ag+]` [AgNO3], the “inhibition of the activity of the activated papain” value in assay [3] was more than 99.5%.

Take `N[C@@H](CS)C(=O)O` [Cysteine, cysteine]: the “efficiency of reactivation of inactivated papain” value in assay [4] (setting [7]) and in assay [5] (setting [7]) was “somewhat more efficient” in each case. Further, the “Δ A410/min” value in assay [1] (20 picomoles added, 1 min incubation) turned out to be 0.45 min⁻¹; in assay [1] (50 picomoles added, 1 min incubation), 1.1 min⁻¹. The “molecules of papain activated for each molecule of activator” value in assay [1] (disulfide linkage inactivated papain) is less than 1.

With `[Cl][Hg][Cl]` [HgCl2], in assay [3], the “inhibition of the activity of the activated papain” value was more than 99.9%.

As for sodium sulfide, the “efficiency of reactivation of inactivated papain” value in assay [4] and in assay [5] was “somewhat more efficient” throughout. Moreover, in assay [1], the “molecules of activator for every one molecule of papain activated” value is recorded as approximately 5.

The values above are taken from patent US20100022018A1 (priority 2006, published 2010).
